Columns and labels:
[1] = system: HCT116; test: MTT cytotoxic/antiproliferative activity, 72 h; assay type: cell-based, human; details: for IC50: HCT116, MTT, 72 h
[2] = system: A549 cells; test: Scratch test (cell migration); assay type: cell-based, human; details: A549, IC50 concentrations, 48 h
Procedure: First, we employed the scratch test. The ability to slow the cell closing the open area was observable for all tested compounds to a similar extent (Figure S38). Whereas the open area was almost completely closed after 48 h in nontreated cells, it remained almost fully clear of cells in the treated samples.
A549 cells were seeded in 24-well plates with inserts (Ibidi) at a density of 2 × 10^4 cells/chamber and incubated overnight. The inserts were then withdrawn, and fresh medium containing the investigated compounds was added. The image of the cell-free region was recorded at the time of compound addition and then after 48 h. The cell-free area was evaluated with Fiji software.

[3] = system: normal (noncancerous) cells MRC-5, IMR-90, hTERT-HPNE, MCF10A; test: MTT, noncancerous cell lines (average, selectivity index); assay type: cell-based, human; details: for SI, selectivity index: IC50(normal cells)/averageIC50(cancer cells); for IC50: average over MRC-5, IMR-90, hTERT-HPNE, MCF10A, read-out: av norm (average IC50 in noncancerous cells)
Procedure: Growth inhibition activity in cancer cell lines was compared with the activity to inhibit the proliferation of normal (noncancerous) cells, namely MRC-5, IMR-90, hTERT-HPNE, and MCF10A cells. Selectivity indexes (SI) were calculated as (IC50 in noncancerous cells)/(average IC50 in cancer cells). […] We further assessed the toxicity of several of the compounds in hepatocyte-like cells (HLC) generated from human pluripotent cells. […]

[4] = system: MDA-MB-231; test: MTT cytotoxic/antiproliferative activity, 72 h; assay type: cell-based, human; details: for IC50: MDA-MB-231, MTT, 72 h
[5] = system: NCI-H2228; test: MTT cytotoxic/antiproliferative activity, 72 h; assay type: cell-based, human; details: for IC50: NCI-H2228, MTT, 72 h
[6] = system: panel of six cancer cell lines; test: MTT, panel of six cancer cell lines (average, ranges); assay type: cell-based, human; details: average over six cancer cell lines; read-out: av cancer (average IC50 in cancer cells)
Procedure: (§1) A panel of six cancer cell lines was used to evaluate the cytotoxic potential of the investigated compounds.
(§2) Cytotoxicity in hepatocyte-like cells (HLC). STEMdiff Hepatocyte Kit was used to generate HLC from human pluripotent stem cells. Cytotoxicity of several of the tested compounds in HLC was evaluated using the sulphorhodamine B assay.

[7] = system: CHOK1; test: MTT cytotoxicity in NER-proficient cells, 72 h; assay type: cell-based, Chinese hamster
From the text: (§3) The cytotoxicity assay was also employed to determine whether DNA damage might be involved in the mechanism of action of the tested compounds. The Chinese hamster ovary MMC2 cell line harbors the ERCC3/XPB mutation, which renders it deficient in nucleotide excision repair (NER), whereas the parent line CHOK1 is proficient in this repair process. Thus, the MMC2 line is often more sensitive to agents causing DNA damage, especially NER-reparable DNA damage, than CHOK1. […] Phosphorylation of H2AX is a commonly used marker of DNA damage.
as §2

[8] = system: CT26 cells; test: Externalization of calreticulin (flow cytometry); assay type: cell-based, murine; details: IC50 concentrations, 16 h
Procedure: Cells with compromised cell membranes (PI-positive) were excluded from the analysis.
CT26 cells were seeded in 6-well plates at a density of 2.5 × 10^5 cells/well and grown overnight. […] PI was added before the flow cytometry analysis with a BD FACS Verse flow cytometer. Then 3 × 10^4 cells were analyzed following the exclusion of cell aggregates. Data was analyzed with FSC Express 7 software (DeNovo software, Glendale, CA).

[9] = system: CT26 cell line; test: MTT cytotoxic/antiproliferative activity, 72 h; assay type: cell-based, murine
[10] = system: U87-MG; test: MTT cytotoxic/antiproliferative activity, 72 h; assay type: cell-based, human; details: for IC50: MTT, 72 h
Procedure: as §1, §2

[11] = system: NCI-H2228 spheroids; test: Cytotoxicity in 3D spheroids, CellTiter-Glo 3D; assay type: cell-based, human; details: NCI-H2228 3D spheroids, 96 h
Procedure: (§4) In the 3D structure, the gradients of gases, nutrients, and therapeutics play a role in the final cytotoxicity of a compound.
(§5) A549 and NCI-H2228 cells were seeded in ultralow attachment, U-shape plates (Corning) at a density of 800 cells/well in the tumorsphere medium consisting of DMEM/F12 medium (Sigma), fibroblast growth factor (20 ng/mL; Sigma), epidermal growth factor 2 (10 ng mL^–1; Sigma), B27 supplement (1×; Gibco), bovine serum albumin, bovine serum albumin (BSA) (1.5 mg mL^–1; Sigma). […] CellTiter-Glo 3D viability assay was used for the experiment evaluation following the manufacturer’s instructions. The bioluminescence signal, proportional to the number of living cells, was measured using the luminescence reader SPARK, and IC50 values were calculated.

[12] = system: A549 spheroids; test: Cytotoxicity in 3D spheroids, CellTiter-Glo 3D; assay type: cell-based, human; details: A549 3D spheroids, 96 h
Procedure: as §4, §5

[13] = system: MCF10A; test: MTT cytotoxicity in noncancerous cells, 72 h; assay type: cell-based, human
Procedure: (§6) Growth inhibition activity in cancer cell lines was compared with the activity to inhibit the proliferation of normal (noncancerous) cells, namely MRC-5, IMR-90, hTERT-HPNE, and MCF10A cells. Selectivity indexes (SI) were calculated as (IC50 in noncancerous cells)/(average IC50 in cancer cells). […] We further assessed the toxicity of several of the compounds in hepatocyte-like cells (HLC) generated from human pluripotent cells.
as §2

[14] = system: MRC-5; test: MTT cytotoxicity in noncancerous cells, 72 h; assay type: cell-based, human; details: MRC-5, MTT
Procedure: as §6, §2

[15] = system: IMR-90; test: MTT cytotoxicity in noncancerous cells, 72 h; assay type: cell-based, human; details: IMR-90, MTT
Procedure: as §6, §2

[16] = system: hTERT-HPNE; test: MTT cytotoxicity in noncancerous cells, 72 h; assay type: cell-based, human
Procedure: as §6, §2

[17] = system: A549; test: MTT cytotoxic/antiproliferative activity, 72 h; assay type: cell-based, human; details: for IC50: A549, MTT, 72 h
[18] = system: NCI-H2228 cells; test: Phosphorylation of H2AX (γH2AX foci, confocal microscopy); assay type: cell-based, human; details: NCI-H2228, 3xIC50, 24 h
From the text: as §3
The nuclei were counter-stained with DAPI. The samples were mounted with ProLong Diamond antifade mountant, and the images were recorded on a Leica SP8 confocal microscope.

[19] = system: MMC2; test: MTT cytotoxicity in NER-deficient cells, 72 h; assay type: cell-based, Chinese hamster; details: for Index F: IC50(CHOK1)/IC50(MMC2); for IC50: MMC2 (NER deficient), MTT, 72 h
From the text: as §3, with “damage. […]” for “damage.”

| Structure (SMILES) | IC50 [1] [nM] | antimigratory effect (closing of open area) [2] | SI, selectivity index [3] | IC50 [3] [nM] | IC50 [4] [nM] | IC50 [5] [nM] | IC50 [6] [nM] | IC50 [7] [nM] | externalization of calreticulin [8] | IC50 [9] [nM] | IC50 [10] [nM] | IC50 [11] [nM] | IC50 [12] [nM] | IC50 [13] [nM] | IC50 [14] [nM] | IC50 [15] [nM] | IC50 [16] [nM] | IC50 [17] [nM] | γH2AX foci (DNA damage marker) [18] | IC50 [19] [nM] | also measured |
| --- | --- | --- | --- | --- | --- | --- | --- | --- | --- | --- | --- | --- | --- | --- | --- | --- | --- | --- | --- | --- | --- |
| N.N.[Cl][Pt][Cl] [cisPt, cisplatin, reference compound] | 8800 ± 500 | reduced the area filling only partially | 1.1 | 9900 | 27000 ± 4000 | 2400 ± 700 | 8800 | 24000 ± 2000 | weakest | 6000 ± 1000 | 3000 ± 200 | 2100 ± 900 | 19000 ± 3000 | 8000 ± 900 | 10000 ± 2000 | 9600 ± 800 | 12000 ± 2000 | 4300 ± 200 | detected γH2AX foci | 2600 ± 600 | Index F [19]: 9.23(***); Index F ([19]; listed as cisplatin): approximately 9 |
| CC(Oc1cc(-c2cnn(C3CCN(C(=O)[O][Pt]([Cl])([Cl])[O]C(=O)CCCc4ccccc4)CC3)c2)cnc1N)c1c(Cl)ccc(F)c1Cl.N.N (stereo not shown) [compound 3, ctc-[Pt(NH3)2(crizotinib)(PhB)Cl2]] | 570 ± 90 | antimigratory potential comparable to that of crizotinib and ceritinib |  | 2200 | 500 ± 70 | 450 ± 90 | 500 | 630 ± 50 | externalization of calreticulin was apparent | 800 ± 200 | 440 ± 50 | 410 ± 70 | 980 ± 50 | 2600 ± 400 | 1500 ± 600 | 2300 ± 600 | 2200 ± 400 | 480 ± 60 | detected γH2AX foci | 230 ± 80 |  |
| Cc1cc(Nc2ncc(Cl)c(Nc3ccccc3S(=O)(=O)C(C)C)n2)c(OC(C)C)cc1C1CCN(C(=O)[O][Pt]([Cl])([Cl])[O]C(=O)CCCc2ccccc2)CC1.N.N [compound 7, ctc-[Pt(NH3)2(ceritinib)(PhB)Cl2]] | 190 ± 60 | antimigratory potential comparable to that of crizotinib and ceritinib | 5.9 | 1300 | 220 ± 80 | 70 ± 10 | 220 | 460 ± 80 | externalization of calreticulin was apparent | 270 ± 70 | 260 ± 90 | 110 ± 30 | 430 ± 70 | 900 ± 200 | 1200 ± 400 | 1100 ± 300 | 2000 ± 300 | 230 ± 80 | detected γH2AX foci | 100 ± 30 | IC50(MIX)/IC50(complex) ([1]; HCT116, MIX3/3 or MIX7/7): 3.1; IC50(MIX)/IC50(complex) ([4]; MDA-MB-231, MIX3/3 or MIX7/7): 4.1; IC50(MIX)/IC50(complex) ([5]; NCI-H2228, MIX3/3 or MIX7/7): 6.3; IC50(MIX)/IC50(complex) ([10]; MIX3/3 or MIX7/7): 2.4; IC50(MIX)/IC50(complex) ([17]; A549, MIX3/3 or MIX7/7): 3.9; Index F [19]: 4.60(**) |

Source: paper PMC12670396, “Crizotinib- or Ceritinib-Conjugated Platinum(IV) Prodrugs As Potent Multiaction Agents Inducing Antiproliferative Effects in 2D and 3D Cancer Cell Models” (Journal of Medicinal Chemistry, 2025)
